In PMC7993727, “Discovery of a novel AR/HDAC6 dual inhibitor for prostate cancer treatment” (Aging (Albany NY), 2021):

Experiments:
[1] = system: HSP90, HSP60, HSP70; assay: expression levels of heat shock proteins; format: cell-based
[2] = system: VCaP xenograft tumors; assay: castration-resistant VCaP xenograft mouse model; format: in vivo, NOD-SCID mice
Excerpt: Figure 4 Zeta55 inhibits tumor growth in a CRPC xenograft model. (A) Percentage change in individual tumor volume of NOD-SCID mice with subcutaneous tumor xenograft grown from VCaP cells. NOD-SCID mice were castrated when the tumor volumes reached about 250mm^3 on 63 days after subcutaneous injection of VCaP cells. […]. Tumor sizes were monitored twice a week after treatment. (B) Mean tumor volumes (mm^3, +SEM) of NOD-SCID mice after treatment. (C) Mean body weight (g, +SEM) of NOD-SCID mice after treatment. *, P < 0.01 vs. vehicle.
The animal protocols used in this study were evaluated and approved by the Xiangya Hospital Medical ethics committee of Central South University. NOD-SCID mice were purchased from Hunan SJA Laboratory Animal Co. Ltd. with a quality license and raised in the SPF Laboratory Animal Room of the Department of Laboratory Zoology at Central South University. Briefly, VCaP cells were suspended in DMEM and Matrigel (BD) (1:1), and 5×10^6 cells/100 μl were subcutaneously injected into a 7-week-old male NOD-SCID mouse. […]. VCaP xenografts were measured twice per week in two dimensions (L and W) by a Vernier caliper, and the tumor volume was calculated as W^2×L/2 (mm^3).
Formalin-fixed, paraffin-embedded xenograft tissue sections were used for immunohistochemistry. TUNEL staining was performed according to the instructions in the TUNEL kit (KeyGEN). Tissue sections were deparaffinized and then boiled in 0.01 mol/L sodium citrate buffer (pH 6.0) in a kilowatt microwave oven for 10 minutes to retrieve cell antigens. Ki67 (Abcam, ab15580) or AR (SANTA, sc-7305) was used as the primary antibody. All tissue sections were immunohistochemically stained using the avidin-biotin-peroxidase method and were counterstained with hematoxylin. The staining intensities were evaluated at 100× magnification.

[3] = biological target: T1, AR (Homo sapiens, UniProt P10275); assay: cell-based; format: cell-based; settings: VCaP cells
T1 construct: The VCaP cells were transfected with MMTV-LUC for 24 hours; endogenous in cells; host or cells: VCaP
T1 sequence (P10275 1-920): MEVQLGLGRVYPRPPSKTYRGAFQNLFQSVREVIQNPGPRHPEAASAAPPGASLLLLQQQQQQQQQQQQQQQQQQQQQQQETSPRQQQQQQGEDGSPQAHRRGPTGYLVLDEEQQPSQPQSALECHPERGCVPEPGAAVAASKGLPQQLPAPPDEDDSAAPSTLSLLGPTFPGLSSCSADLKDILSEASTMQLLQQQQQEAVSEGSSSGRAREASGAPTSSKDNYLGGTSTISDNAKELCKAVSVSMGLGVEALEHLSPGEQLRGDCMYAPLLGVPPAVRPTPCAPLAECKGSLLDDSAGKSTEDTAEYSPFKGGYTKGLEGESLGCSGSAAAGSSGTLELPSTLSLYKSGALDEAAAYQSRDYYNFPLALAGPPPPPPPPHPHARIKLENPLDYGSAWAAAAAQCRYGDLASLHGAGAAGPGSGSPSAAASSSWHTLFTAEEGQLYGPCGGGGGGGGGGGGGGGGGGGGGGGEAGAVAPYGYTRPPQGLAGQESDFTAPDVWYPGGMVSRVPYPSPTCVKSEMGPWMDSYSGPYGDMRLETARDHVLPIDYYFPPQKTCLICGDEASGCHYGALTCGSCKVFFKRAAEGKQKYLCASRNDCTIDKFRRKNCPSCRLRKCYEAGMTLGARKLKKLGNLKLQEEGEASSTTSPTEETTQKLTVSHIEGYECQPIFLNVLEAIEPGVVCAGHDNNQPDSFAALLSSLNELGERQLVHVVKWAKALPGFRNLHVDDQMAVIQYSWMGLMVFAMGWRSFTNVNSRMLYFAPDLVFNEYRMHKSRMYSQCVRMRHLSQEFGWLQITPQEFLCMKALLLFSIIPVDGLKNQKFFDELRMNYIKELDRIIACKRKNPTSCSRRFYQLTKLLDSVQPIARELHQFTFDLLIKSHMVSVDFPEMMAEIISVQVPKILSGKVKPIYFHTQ
Description: To evaluate the AR inhibition activities of Zeta55, an AR luciferase activity assay was performed (Table 1 and Supplementary Figure 1). […] To evaluate the HDAC inhibition activities of Zeta55, fluorescent-based HDAC assays were performed (Table 1 and Supplementary Figure 3).

[4] = system: DU145 cells; assay: cell proliferation assay; format: cell-based; settings: Homo sapiens, DU-145, 72 h, read-out: IC50 values proliferation DU145
[5] = biological target: T1, AR; format: cell-based; settings: VCaP cells, 24 hours
Description: RNA expression level was analyzed by qRT-PCR and protein expression level was analyzed by Western blot. […] (I) Representative immunofluorescence microscopic images of VCaP cells for checking the subcellular localization of AR.
To evaluate the HDAC6 inhibition ability of Zeta55 in VCaP cells, the acetylation status of α-tubulin protein (a HDAC6 substrate) was assessed using western blot. […] We assessed the protein level of AR in VCaP cells.
The whole-cell extracts were prepared in lysis buffer with a protease inhibitor cocktail (Bimake), while the xenograft tissue extracts were prepared in 0.5% Nonidet P 40 Substitute solution (Biosharp) with cocktail protease inhibitor (Bimake). Each sample containing 30 μg of total protein was loaded onto 10% SDS-PAGE and electrotransferred onto polyvinylidene fluoride membranes. The membranes were blocked with 5% skimmed milk in PBST at room temperature for 2 hours and incubated with primary antibodies at 4° C overnight. After the membranes were washed with PBST three times, they were incubated with horseradish peroxidase-conjugated anti-rabbit or anti-mouse secondary antibody at room temperature for 1 hour. Chemiluminescent detection was performed with WesternBright ECL (Advansta). The immunoblots were visualized using the FluorChem FC3 system (ProteinSimple).

N#Cc1ccc(N2C(=O)C3(CCC3)N(c3ccc(C(=O)NO)c(F)c3)C2=S)cc1C(F)(F)F [Zeta55]
expression levels of HSP70 [1]: slightly up-regulated | expression levels of HSP90 and HSP60 [1]: did not influence | antitumor activity ([2]; 30 mg/kg/d oral, 49 days, compared with MDV3100 30 mg/kg/d): slightly better antitumor activity than MDV3100 | tumors with tumor regression ([2]; 60 mg/kg/d oral, 49 days, n=6, castrated NOD-SCID mice): 5 of 6 | weights of mice during treatment ([2]; 30 and 60 mg/kg daily oral): did not decrease significantly | expression of AR and PSA in treated tumors ([2]; immunohistochemical and Western blot analysis, compared to MDV3100 and vehicle): decreased expression of AR and PSA | Ki-67 staining of tumor xenografts ([2]; mouse, in vivo): inhibited tumor cell proliferation | TUNEL staining of tumor xenografts ([2]; mouse, in vivo): induced apoptosis | IC50 ([3]; AR luciferase activity assay, MMTV-LUC, with 10 nM DHT): 0.63 µM | AR antagonist activity, AR-mediated expression of reporter gene ([3]; in the presence of DHT): potently inhibited | AR agonist activity, expression of reporter gene ([3]; without DHT, 10 μM): did not induce the expression of reporter gene | IC50 [4]: 45.7 µM | AR protein level [5]: decreased AR protein level in a dose-dependent manner
